From patent US20120165330A1, “QUINAZOLINONE AND RELATED ANALOGS AS SIRTUIN MODULATORS” (Sirtris Pharmaceuticals, Inc., priority 2010, published 2012)
Like-named read-outs stand apart in the source and are kept apart here.

Assays:
[1] = biological target: T1, SIRT2 (Homo sapiens, UniProt Q8IXJ6); assay: mass spectrometry based assay to identify modulators of SIRT2 inhibition; format: biochemical
T1 sequence (Q8IXJ6 1-389): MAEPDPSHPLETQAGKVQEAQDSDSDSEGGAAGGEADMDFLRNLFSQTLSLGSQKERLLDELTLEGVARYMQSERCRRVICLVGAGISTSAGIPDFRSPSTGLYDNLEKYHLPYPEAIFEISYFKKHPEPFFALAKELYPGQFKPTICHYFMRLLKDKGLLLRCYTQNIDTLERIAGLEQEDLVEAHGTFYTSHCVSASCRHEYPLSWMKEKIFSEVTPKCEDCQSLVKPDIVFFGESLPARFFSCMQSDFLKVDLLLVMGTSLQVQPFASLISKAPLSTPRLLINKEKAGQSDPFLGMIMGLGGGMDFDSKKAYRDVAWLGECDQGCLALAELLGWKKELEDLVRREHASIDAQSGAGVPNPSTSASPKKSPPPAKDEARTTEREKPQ
Description: (§1) A mass spectrometry based assay was used to identify modulators of SIRT2 inhibition. […] The peptide is labeled with the fluorophore 5TMR (excitation 540 nm/emission 580 nm) at the C-terminus. The sequence of the peptide substrate is based on p53 with several modifications. In addition, the methionine residue naturally present in the sequence was replaced with the norleucine because the methionine may be susceptible to oxidation during synthesis and purification.
(§2) Test compounds may be added to the reaction as described above. The SirT2 gene is cloned into a T7-promoter containing vector and transformed into BL21(DE3). After the 30 minute incubation with SIRT2, 10 μL of 10% formic acid is added to stop the reaction. Reactions are sealed and frozen for later mass spec analysis. Determination of the mass of the substrate peptide allows for precise determination of the degree of acetylation (i.e. starting material) as compared to deacetylated peptide (product).
(§3) This timepoint is the same as that used for test compounds and, within the linear range, the endpoint represents a change in velocity.
For the above assay, SIRT2 protein was expressed and purified as follows. The SirT2 gene was cloned into a T7-promoter containing vector and transformed into BL21(DE3) with chaperone plasmid. The protein was expressed by induction with 0.3 mM IPTG as an N-terminal His-tag fusion protein at 18° C. overnight and harvested at 30,000×g. Cells were lysed with sonication in lysis buffer (50 mM Tris-HCl, 10% glycerol, 300 mM NaCl, pH 7.8) for 10 min. The protein was purified over a Ni-NTA column (GE Healthcare) and eluted with lysis buffer containing 100 to 250 mM imidazole. Fractions containing target protein were pooled and TEV protease (Invitrogen) was added to the protein and incubated at 4° C. overnight in lysis buffer to remove the N-terminal His tag. The treated sample was added back on Ni-NTA column. Target protein was obtained by eluting with lysis buffer with 5 mM imidazole and loaded onto the Q-Sepharose F.F. column. The flow-through fraction of Q-Sepharose F.F. column was then directly re-adsorbed on the SP-Sepharose F.F. column and eluted with 20 mM Tris-HCl, 100 mM NaCl, pH 7.8. The protein was concentrated with 50 ml Amicon Ultra centrifugal-filter device (Millipore), then loaded on S-200 gel filtration column and eluted with 20 mM Tris-HCl, 200 mM NaCl, pH 8.0. The protein was aliquoted and frozen at −80° C. until further use.

[2] = biological target: T2, SIRT1 (Homo sapiens, UniProt Q96EB6); assay: mass spectrometry based assay to identify modulators of SIRT1 activity; format: biochemical; details: for Emax: 25 min, percent maximum fold activation of SIRT1, read-out: SIRT1 % FOLD ACT.; for EC1.5 (concentration for 1.5-fold activation): concentration for 1.5-fold activation of SIRT1 deacetylase, 0.5 μM peptide substrate, 120 μM βNAD+, 10 nM SIRT1, 25 min at 25° C.
T2 sequence (Q96EB6 1-747): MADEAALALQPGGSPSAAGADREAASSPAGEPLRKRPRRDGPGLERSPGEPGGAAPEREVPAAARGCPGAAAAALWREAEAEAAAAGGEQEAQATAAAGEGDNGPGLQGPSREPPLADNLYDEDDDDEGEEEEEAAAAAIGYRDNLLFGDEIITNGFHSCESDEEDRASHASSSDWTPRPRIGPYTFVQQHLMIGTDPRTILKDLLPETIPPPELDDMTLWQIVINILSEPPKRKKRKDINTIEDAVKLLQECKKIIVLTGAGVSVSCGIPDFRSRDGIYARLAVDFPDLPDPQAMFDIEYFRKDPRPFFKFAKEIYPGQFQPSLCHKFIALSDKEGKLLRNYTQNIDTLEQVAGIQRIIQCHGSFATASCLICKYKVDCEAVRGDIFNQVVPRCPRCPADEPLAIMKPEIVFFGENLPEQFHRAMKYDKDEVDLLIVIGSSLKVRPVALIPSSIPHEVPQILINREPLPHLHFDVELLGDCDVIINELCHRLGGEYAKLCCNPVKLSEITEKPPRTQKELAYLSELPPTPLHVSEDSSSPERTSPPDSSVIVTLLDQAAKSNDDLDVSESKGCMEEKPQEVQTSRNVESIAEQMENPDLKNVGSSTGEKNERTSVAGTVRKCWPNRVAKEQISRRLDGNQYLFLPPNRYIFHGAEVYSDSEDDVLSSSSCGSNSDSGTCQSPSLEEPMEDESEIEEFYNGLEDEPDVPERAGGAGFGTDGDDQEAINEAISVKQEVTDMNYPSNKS
Description: as §1, with “SIRT1 activity.” for “SIRT2 inhibition.”
as §2, with “SirT1” for “SirT2”, “25” for “30”, “SIRT1,” for “SIRT2,”
as §3
For the above assay, SIRT1 protein was expressed and purified as follows. The SirT1 gene was cloned into a T7-promoter containing vector and transformed into BL21(DE3). The protein was expressed by induction with 1 mM IPTG as an N-terminal His-tag fusion protein at 18° C. overnight and harvested at 30,000×g. Cells were lysed with lysozyme in lysis buffer (50 mM Tris-HCl, 2 mM Tris[2-carboxyethyl]phosphine (TCEP), 10 μM ZnCl2, 200 mM NaCl) and further treated with sonication for 10 min for complete lysis. The protein was purified over a Ni-NTA column (Amersham) and fractions containing pure protein were pooled, concentrated and run over a sizing column ([…]). The peak containing soluble protein was collected and run on an Ion-exchange column (MonoQ). Gradient elution (200 mM-500 mM NaCl) yielded pure protein. This protein was concentrated and dialyzed against dialysis buffer (20 mM Tris-HCl, 2 mM TCEP) overnight. The protein was aliquoted and frozen at −80° C. until further use.

[3] = 2.68 μM peptide substrate, 135 μM βNAD+, 50 nM SIRT2, 30 min at room temperature, read-out: SIRT2 IC50 UM

Row | Compound | IC50 [1] | Emax [2] | EC1.5 (concentration for 1.5-fold activation) ([2]; read-out: SIRT1 EC1.5 µM) | IC50 [1, 3] | EC1.5 (concentration for 1.5-fold activation) ([2]; read-out: SIRT1 EC1.5 UM)
1 | Cc1nc2cccc(NC(=O)c3cnccn3)c2c(=O)n1-c1cccc(C(F)(F)F)c1 [Compound 2, N-(2-methyl-4-oxo-3-(3-(trifluoromethyl)phenyl)-3,4-dihydroquinazolin-5-yl)pyrazine-2-carboxamide] | 10 to 50 µM | > 150% | < 50 µM |  | 
2 | Cc1nc2cccc(NC(=O)c3cscn3)c2c(=O)n1-c1cccc(C(F)(F)F)c1 [Compound 1, N-(2-methyl-4-oxo-3-(3-(trifluoromethyl)phenyl)-3,4-dihydroquinazolin-5-yl)thiazole-4-carboxamide] |  |  |  | < 10 µM | 
3 | Cc1nc2cccc(NC(=O)c3cccc(OCC(O)CO)n3)c2c(=O)n1-c1cccc(C(F)(F)F)c1 (stereo not drawn) [Compound 6, 6-(2,3-dihydroxypropoxy)-N-(2-methyl-4-oxo-3-(3-(trifluoromethyl)phenyl)-3,4-dihydroquinazolin-5-yl)picolinamide] |  | > 150% | < 50 µM |  | 
4 | Cc1nc2cccc(NC(=O)c3cscn3)c2c(=O)n1-c1cccc(C(F)(F)F)c1 [Compound 8, N-(2-methyl-4-oxo-3-(3-(trifluoromethyl)phenyl)-3,4-dihydroquinazolin-5-yl)thiazole-4-carboxamide] |  | > 150% |  |  | < 50 µM
5 | Cc1nc2cccc(NC(=O)c3cccc(OCC(O)CO)n3)c2c(=O)n1-c1cccc(OC(F)(F)F)c1 (stereo not drawn) [Compound 9, 6-(2,3-dihydroxypropoxy)-N-(2-methyl-4-oxo-3-(3-(trifluoromethoxy)phenyl)-3,4-dihydroquinazolin-5-yl)picolinamide] |  | > 150% |  |  | < 50 µM
6 | Cc1nc2cccc(NC(=O)c3cccc(CN4CCOCC4)n3)c2c(=O)n1-c1cccc(C(F)(F)F)c1 [Compound 7, N-(2-methyl-4-oxo-3-(3-(trifluoromethyl)phenyl)-3,4-dihydroquinazolin-5-yl)-6-(morpholinomethyl)picolinamide] |  | > 150% |  |  | < 50 µM
7 | Cc1nc2cccc(NC(=O)Cc3cccnc3)c2c(=O)n1-c1cccc(OC(F)(F)F)c1 [Compound 5, N-(2-methyl-4-oxo-3-(3-(trifluoromethoxy)phenyl)-3,4-dihydroquinazolin-5-yl)-2-(pyridin-3-yl)acetamide] |  | < 150% |  | 10 to 50 µM | > 50 µM
8 | Cc1nc2cccc(NC(=O)c3cnccn3)c2c(=O)n1-c1cccc(OC(F)(F)F)c1 [Compound 4, N-(2-methyl-4-oxo-3-(3-(trifluoromethoxy)phenyl)-3,4-dihydroquinazolin-5-yl)pyrazine-2-carboxamide] |  | > 150% |  | 10 to 50 µM | < 50 µM
9 | Cc1nc2cccc(NC(=O)c3cscn3)c2c(=O)n1-c1cccc(OC(F)(F)F)c1 [Compound 3, N-(2-methyl-4-oxo-3-(3-(trifluoromethoxy)phenyl)-3,4-dihydroquinazolin-5-yl)thiazole-4-carboxamide] |  | < 150% |  | < 10 µM | > 50 µM
